From a melting point compilation (Tetko et al.; mined from patent text by program, amines drawn as free bases though some values may be those of a salt)

Row | SMILES | melting point [°C]
1 | CC(CC1CCOCC1)(c1ccc(S(C)(=O)=O)cn1)c1ccc(-c2ccccn2)[nH]1 (stereo unspecified) | 135 to 136
2 | Cc1ccnc2c1C(=O)c1ccccc1C2=O | 198 to 201
3 | O=C1CCN(Cc2ccccc2)C(=O)C1=C1SCCS1 | 148 to 150
4 | Fc1ccc(F)c(-c2coc3ccc(-c4nnc(S)o4)cc23)c1 | 206 to 207
5 | O=C(Nc1ccc(F)c(C(F)(F)F)c1)C1C(=O)C2CCC(C2)C1=O (stereo unspecified) | 97 to 100
6 | Cc1cn(C(C)(C)C(N)=O)nc1-c1ccccc1 | 105 to 106
7 | O=c1cc(-c2ccoc2)c2ccc(CBr)cc2o1 | 155 to 156
8 | Cc1ccc(S(=O)(=O)Cc2c(-c3cc([N+](=O)[O-])cc([N+](=O)[O-])c3)nn(C)c2O)cc1 | 192 to 194
9 | O=C1c2ccccc2C(O)(c2ccc(F)cc2)C2=NCCCN12 (stereo unspecified) | 126 to 128
10 | COc1ccc(Cn2nnc(-c3cccc(CO)c3)n2)cc1 | 70 to 72
11 | COC(=O)Oc1ccc(OC)c(C=O)c1 | 88 to 89
12 | CNCC(=O)N1Cc2cccc3c2N(CC3)c2ccccc21 | 128 to 130
13 | O=C(NO)c1ccc(-c2ccc3nnn(Cc4ccc5ncccc5c4)c3n2)cc1F | 180 to 182
14 | CC(C)(C)c1cc(CCc2ccccc2NC(=O)N2CCOCC2)cc(C(C)(C)C)c1O | 186 to 189
15 | COC(=O)[C@H](Cc1ccccc1)NC(=O)[C@H](Cc1ccccc1)NC(=O)[C@H](CC(N)=O)NC(=O)OC(C)(C)C | 192 to 194
16 | O=C(N[C@H](Cc1cccc(C(F)(F)F)c1)[C@@H](O)c1ccc(F)cc1)c1ccc(F)c2ccccc12 (racemic) | 193 to 194
17 | CN(C)CCNC1=CC(=O)c2nc(-c3ccc4ccccc4c3)sc2C1=O | 167 to 168
18 | COC(=O)c1cc(N=Cc2ccccc2)ccc1OC(C)=O | 101 to 103
19 | COc1cncc(-c2cncc(OC3SCC(O)C(O)C3O)c2)c1 (stereo unspecified) | 193
20 | COc1cc2cn(C3CCCCC3)nc2cc1OC | 100 to 103
21 | CC(CS(=O)(=O)c1ccccc1)C1CCC2C3CC=C4C(C)(C)C(O)CCC4(C)C3CCC12C (stereo unspecified) | 176 to 181
22 | FC(F)(F)c1cc(-c2ccc(Cl)cc2)nc2c(I)cnn12 | 155
23 | CCCC=NNc1cc2c(nn1)CCN(C(=O)OCC)C2 | 142 to 146
24 | Cc1ccc(S(=O)(=O)N2CCC3(CCc4ccccc43)CC2)cc1 | 140 to 142
25 | OC1c2ccccc2OC12CCCCCC2 (stereo unspecified) | 104 to 107
26 | O=C(Nc1ccc(C[C@H](NS(=O)(=O)N2CCCCCC2)C(=O)O)cc1)c1c(Cl)cncc1Cl | 185

Row | SMILES | melting point [°C]
27 | CCC(C)(C)c1ccc(S(=O)(=O)Nc2ncnc(OCCOc3ccc(Br)cn3)c2-c2ccc(C)cc2)cc1 | 154
28 | C=CCC1(Cc2nc[nH]c2C)CCc2c(C)c3ccccc3n2C1=O (stereo unspecified) | 209 to 210
29 | Cc1cc(C)cc(-c2nnc(C(N)=O)o2)c1 | 230
30 | O=C(NN1CCCCC1)c1ccc(N2CCN(C(=O)N3CCC(c4cn[nH]c4)C3)c3ccccc32)cc1 (stereo unspecified) | 251
31 | CC1(C)C(=O)NC(=O)c2ccccc21 | 84 to 88
32 | COc1cc2c(c(Cl)c1Cl)C(=O)C(c1ccccc1)C2 (stereo unspecified) | 187 to 192
33 | Fc1ccc(Sc2c[nH]c3ncccc23)cc1 | 183 to 184
34 | O=C(Nc1nnn[nH]1)c1ccc(OCCn2ccnc2)cc1 | 263
35 | Cc1ccc(N2C(=O)C(O)=C(C(=O)c3ccc(C(C)C)cc3)C2c2ccc(OC(C)C)cn2)nn1 (stereo unspecified) | 243 to 245
36 | CCCCCCCCCCCCCCCCOc1ccc(C(=O)O)o1 | 118 to 119
37 | COc1ccc(N2CCN(c3c(C)c(C)c4c(c3C)CC3(CCOCC3)O4)CC2)cc1 | 153 to 155
38 | Cc1ccc(C)c2[nH]c(N)nc12 | 164 to 170
39 | CNC(=O)c1cc(OC)c(C(=O)NC)c(NC(=O)CCl)c1OC | 228 to 229
40 | Cc1ccc(S(=O)(=O)OCC2CCN(c3nc4ccccc4s3)CC2)cc1 | 184
41 | Cc1ccc(-c2occc2C(=O)O)cc1 | 166
42 | CCOC(=O)c1ncn2c1[C@@H]1CCCN1C(=O)c1cc(Cl)ccc1-2 | 242 to 244
43 | COC(=O)Cc1c(C(=O)OC)oc2ccccc2c1=O | 105
44 | C=CCNC(=O)C1CCc2cc(Cl)ccc2O1 (stereo unspecified) | 112 to 114
45 | Cc1ccccc1NC(=O)Nc1ccc(C(=O)N2CCCCc3sccc32)cc1 | 179 to 182
46 | CS(=O)Cc1cc(C(F)(F)F)ccc1N (stereo unspecified) | 122 to 125
47 | O=[N+]([O-])c1cnc(Sc2cncc(Cl)n2)s1 | 108 to 110
48 | CCn1c(=O)c(C)cc2cnc(Nc3ccccc3)nc21 | 178 to 180
49 | O=S1(=O)N=C(NCc2ccccc2)Nc2cc(Cl)sc21 | 223 to 226
50 | CN1CCC2(CC1)c1ccccc1C(O)c1ccccc12 | 208 to 210
51 | CCOc1ccccc1C1(CC(=O)N2CCN(c3ccncc3)CC2)C(=O)N(S(=O)(=O)c2ccc(OC)cc2OC)c2ccc(Cl)cc21 (stereo unspecified) | 225
52 | COC(=O)CCc1ccc(CCc2csc(NC(C)=O)n2)s1 | 104 to 106

Row | SMILES | melting point [°C]
53 | O=C(Nc1cc(Cl)cc(Cl)c1)c1cc(I)ccc1O | 244 to 245
54 | CCN(Cc1cccnc1)C(=S)NC | 122 to 123
55 | O=C(O)c1ccc(OCC2CN(c3ccccc3)C(=S)O2)cc1 (stereo unspecified) | 214 to 215
56 | CCCCCCCOc1ccc(C2CC(CCCCCC)C(=O)O2)cc1 (stereo unspecified) | 45.9 to 47
57 | CCOC(=O)C=C(C)Oc1ccc(C23CC4CC(CC(C4)C2)C3)cc1 | 97 to 98
58 | CN1CC(CCN2CCOCC2)N(C)c2nc3ccccc3n2C1=O (stereo unspecified) | 149 to 152
59 | CCCOc1cc2[nH]c(=O)[nH]c(=O)c2cc1OC | 259 to 261
60 | Cc1cc(O)n2nc(CBr)nc2n1 | 217 to 222
61 | NC(=O)CCC(N)CO (stereo unspecified) | 92 to 95
62 | CCc1nc2c(cnn2CC)c(NC2CCOCC2)c1CNC(=O)c1cccc(C(=O)NCc2ccc(F)c(-c3cccc(CN4CCN(C(C)C)CC4)c3)c2)c1 | 165 to 169
63 | OC(c1ccccc1)c1cc2ccccc2cc1C(O)c1ccccc1 (stereo unspecified) | 145
64 | CCN1CCN(c2ccnc3sc(C(N)=O)c(N)c23)CC1 | 218 to 219
65 | COC(=O)Cc1c(O)nc(C)nc1O | > 200
66 | COc1cc(Nc2c(C#N)cnc3cc(-c4coc(CN5CCN(C)CC5)c4)c(OC)cc23)c(Cl)cc1Cl | 179 to 181
67 | CN(C)CCNC(=O)CCn1c(-c2ccc(Cl)cc2)nc2cccnc21 | 142 to 143
68 | CCC(C)OC(=O)CNC(=O)[C@@H](Cc1ccccc1)CN1CC[C@@](C)(c2cccc(O)c2)[C@@H](C)C1 (stereo partly specified) | 94
69 | O=C(Nc1cccnc1)c1ccc(OC(F)F)c2oc3ccc(C(F)(F)F)cc3c12 | 235 to 236
70 | O=C(O)C(=O)c1ccc(OCc2ccc3ccccc3c2)cc1 | 145 to 146
71 | CCn1c(C)c(I)c(=O)n(CC)c1=O | 159 to 162
72 | CCOC(=O)C1=C(C(F)(F)F)Nc2n[nH]cc2C1c1ccc(OC)cc1 (stereo unspecified) | 159 to 161
73 | Cc1ccc(-c2ccc3c(c2)C=C(C(=O)Nc2ccc(C(O)c4ccccn4)cc2)C(C)O3)cc1 (stereo unspecified) | 202 to 205
74 | CCOC(=O)Cc1ccc2c(c1)C(=O)c1ccccc1CN2 | 98 to 100
75 | CCOc1ccc(C2C(C(=O)c3ccc(C(C)C)cc3)=C(O)C(=O)N2c2ccc(C)nn2)nc1 (stereo unspecified) | 198 to 199
76 | Cc1ccc(-c2nnc(N(CCCCOCC(=O)O)C(C)C)nc2-c2ccc(C)cc2)cc1 | 119 to 121
77 | O=C1CCCCN1CCC(=O)N1CCC(C2c3ncc(Br)cc3CCc3cc(Cl)cc(Br)c32)CC1 (single isomer, unassigned; (+)) | 138 to 139
78 | C#CC12CC3CC(C#C)(C1)CC(C#C)(C3)C2 | 84 to 86

Row | SMILES | melting point [°C]
79 | O=C(N[C@H]1CCN(CCc2ccc(F)cc2)C1)C(c1cccs1)c1cccs1 | 96 to 98
80 | Clc1cccc2c1Oc1ccccc1N=C2N1CCN2CCC[C@H]2C1 | 150 to 151
81 | CC(=O)C1(C(=O)N[C@H](C)c2ccccc2)CCC1 | 57 to 60
82 | Fc1ccc(Nc2ncnc3cnc(NCC4CCNCC4)nc23)cc1Cl | 204 to 206
83 | CCOC(=O)C(S)CC(=O)c1ccc(Oc2ccccc2)cc1 (stereo unspecified) | 46 to 47.5
84 | CC#CCOc1ccc(S(=O)(=O)C2(C(=O)O)CCN(C(CC)CC)CC2)cc1 | 98
85 | COc1cc(N)c(Cl)cc1C(=O)N[C@H]1CCNC[C@H]1OC (relative stereo) | 184
86 | O=C(O)c1cccc2c1ccn2-c1ccnc(N[C@H]2CC[C@H](O)CC2)n1 | 259 to 261
87 | Cc1nc2ccc(F)cc2n1C1CC2CC(=O)CC2C1 (stereo unspecified) | 199 to 200
88 | CNC(=S)C1(c2ccccn2)CCCO1 (stereo unspecified) | 115
89 | Cn1ncc(C(=O)N2CCOCC2)c1C(=O)Nc1cc2nc(-c3ccccc3)nn2cc1F | 224 to 225
90 | CC(=O)Nc1ccc(-c2ccc(CC34CCCN3C(=O)N(c3cc(Cl)cc(Cl)c3)C4=O)cc2)cc1 (stereo unspecified) | 124
91 | O=C(Nc1ccc(-c2ccc(C(=O)N3CCN4CCC3CC4)o2)cc1)Nc1cccc(F)c1 | 230
92 | CCOC(=O)Cc1cc(C(=O)OC)ccc1NC(C)=O | 119
93 | COc1ccccc1C1=CC(=O)CCC1CC(=O)O (stereo unspecified) | 183 to 184
94 | COC(=O)c1cnc(Cl)cc1NN | 163
95 | CC(=O)Nc1nc2c(Oc3cc(-c4ccc(C(F)(F)F)cc4)c(-c4ccc(F)cc4)cn3)cccc2s1 | 112 to 130
96 | C=C(C)CN(CC(=O)O)c1c(N)c(=O)c1=O | 184 to 186
97 | O=C(C=Cc1ccc(O)c([N+](=O)[O-])c1)N(c1ccccc1)c1ccccc1 | 197 to 198
98 | Cc1cc(C)cc(CON2C(=O)COc3ccc(C=C4SC(=S)NC4=O)cc32)c1 | > 300
99 | O=C1Nc2ccccc2N(C(=O)CN2CCCCC2CN2CCCC2)c2ccccc21 (stereo unspecified) | 199 to 201
100 | COc1ccc(C2=NNC(=O)[C@H]3CC=CC[C@@H]23)cc1OC (relative stereo) | 173 to 174
101 | CC(O)Cn1c(COC(N)=O)nc(C(C)C)c1Sc1cc(Cl)cc(Cl)c1 (stereo unspecified) | 82
